Values quoted from earlier work in patent US20030225129A1, “Polymorphs of clopidogrel hydrogensulfate” (priority 2002, published 2003).

How the values were obtained:
[1] = test system: platelet aggregation
[2] = in vivo
[3] = test system: platelet activity; settings: after administration

In the case of `COC(=O)[C@H](c1ccccc1Cl)N1CCc2sccc2C1` [clopidogrel, methyl (+)-(S)-∝-(o-chlorophenyl)-6,7-dihydrothieno[3,2-c]pyridine-5(4H)-acetate], the “effectiveness relative to aspirin at stated dosages” value ([1]; 75 mg of base equivalent versus 325 mg of aspirin) is given as “more effective”, the “effectiveness in blocking platelet aggregation relative to aspirin” value ([1]; versus aspirin, even at much lower dosage) is given as “more effective in blocking platelet aggregation than aspirin” and the “gastrointestinal bleeding relative to aspirin” value [2] is given as “much less gastrointestinal bleeding than aspirin”. For the same compound, the “duration of antiplatelet activity” value [3] was “up to ten days after administration”.
